Experimental data taken from PubChem BioAssay AID2060325 (Molecular Pharmacology Branch, DTP, NCI, 2025).

Test system: SK-OV-3 multi-cell spheroids, viability
Experiment: Anticancer human tumor SK-OV-3 cell line growth inhibition [IpAb];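 for viability, T/C: viability read after seven days of drug exposure; percent of DMSO vehicle control luminescence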
Conditions: for IC50: curve of first compound; for viability, T/C: stronger effect = lower value
Summary of the method: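 Multi-cell spheroids of 60% tumour cells, 25% HUVEC and 15% MSC in ultra-low-attachment U-bottom wells, treated with agents combined with ipatasertib or abemaciclib. Half-log ranges top out near clinical Cmax, or 10 microM when Cmax is unknown.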

[1] = second compound 0.01 µM, first compound 0.0316 µM
[2] = second compound 0.01 µM, first compound 0.1 µM
[3] = second compound 0.01 µM, first compound 0.316 µM
[4] = second compound 0.01 µM, first compound 1 µM
[5] = second compound 0.01 µM, first compound 3.16 µM
[6] = second compound 0.01 µM, first compound 10 µM
[7] = second compound 0.0316 µM, first compound 0.0316 µM
[8] = second compound 0.0316 µM, first compound 0.1 µM
[9] = second compound 0.0316 µM, first compound 0.316 µM
[10] = second compound 0.0316 µM, first compound 1 µM
[11] = second compound 0.0316 µM, first compound 3.16 µM
[12] = second compound 0.0316 µM, first compound 10 µM
[13] = second compound 0.1 µM, first compound 0.0316 µM
[14] = second compound 0.1 µM, first compound 0.1 µM
[15] = second compound 0.1 µM, first compound 0.316 µM
[16] = second compound 0.1 µM, first compound 1 µM
[17] = second compound 0.1 µM, first compound 3.16 µM
[18] = second compound 0.1 µM, first compound 10 µM
[19] = second compound 0.316 µM, first compound 0.0316 µM
[20] = second compound 0.316 µM, first compound 0.1 µM
[21] = second compound 0.316 µM, first compound 0.316 µM
[22] = second compound 0.316 µM, first compound 1 µM
[23] = second compound 0.316 µM, first compound 3.16 µM
[24] = second compound 0.316 µM, first compound 10 µM
[25] = second compound 1 µM, first compound 0.0316 µM
[26] = second compound 1 µM, first compound 0.1 µM
[27] = second compound 1 µM, first compound 0.316 µM
[28] = second compound 1 µM, first compound 1 µM
[29] = second compound 1 µM, first compound 3.16 µM
[30] = second compound 1 µM, first compound 10 µM

C=CC(=O)N1CCN(c2nc(=O)n(-c3c(C)ccnc3C(C)C)c3nc(-c4c(O)cccc4F)c(F)cc23)C(C)C1 (stereo not given) + CCN1CCN(Cc2ccc(Nc3ncc(F)c(-c4cc(F)c5nc(C)n(C(C)C)c5c4)n3)nc2)CC1
IC50 (second compound 0.01 µM): > 10 µM
IC50 (second compound 0.0316 µM): > 10 µM
IC50 (second compound 0.1 µM): > 10 µM
IC50 (second compound 0.316 µM): > 10 µM
IC50 (second compound 1 µM): > 10 µM
viability, T/C [1]: 89.9%
viability, T/C [2]: 99.2%
viability, T/C [3]: 93.8%
viability, T/C [4]: 107%
viability, T/C [5]: 96.5%
viability, T/C [6]: 61.7%
viability, T/C [7]: 74.4%
viability, T/C [8]: 82.8%
viability, T/C [9]: 79%
viability, T/C [10]: 81.8%
viability, T/C [11]: 85.4%
viability, T/C [12]: 53.8%
viability, T/C [13]: 58.8%
viability, T/C [14]: 66.5%
viability, T/C [15]: 65.5%
viability, T/C [16]: 69%
viability, T/C [17]: 73.2%
viability, T/C [18]: 47.1%
viability, T/C [19]: 53.7%
viability, T/C [20]: 59%
viability, T/C [21]: 61.8%
viability, T/C [22]: 61%
viability, T/C [23]: 62.8%
viability, T/C [24]: 48%
viability, T/C [25]: 47%
viability, T/C [26]: 53.3%
viability, T/C [27]: 53.7%
viability, T/C [28]: 55.5%
viability, T/C [29]: 57.5%
viability, T/C [30]: 46.9%

CC(C)(C)c1cnc(CSc2cnc(NC(=O)C3CCNCC3)s2)o1 + CCN1CCN(Cc2ccc(Nc3ncc(F)c(-c4cc(F)c5nc(C)n(C(C)C)c5c4)n3)nc2)CC1
IC50 (second compound 0.01 µM): 0.196 µM
IC50 (second compound 0.0316 µM): 0.168 µM
IC50 (second compound 0.1 µM): 0.147 µM
IC50 (second compound 0.316 µM): 0.129 µM
IC50 (second compound 1 µM): < 0.00949 µM
viability, T/C (second compound 0.01 µM, first compound 0.00949 µM): 99.3%
viability, T/C (second compound 0.01 µM, first compound 0.03 µM): 109%
viability, T/C (second compound 0.01 µM, first compound 0.0949 µM): 104%
viability, T/C (second compound 0.01 µM, first compound 0.3 µM): 18.4%
viability, T/C (second compound 0.01 µM, first compound 0.949 µM): 0.62%
viability, T/C (second compound 0.01 µM, first compound 3 µM): 1.2%
viability, T/C (second compound 0.0316 µM, first compound 0.00949 µM): 80.2%
viability, T/C (second compound 0.0316 µM, first compound 0.03 µM): 87.8%
viability, T/C (second compound 0.0316 µM, first compound 0.0949 µM): 88.3%
viability, T/C (second compound 0.0316 µM, first compound 0.3 µM): 14%
viability, T/C (second compound 0.0316 µM, first compound 0.949 µM): 1.38%
viability, T/C (second compound 0.0316 µM, first compound 3 µM): 1.32%
viability, T/C (second compound 0.1 µM, first compound 0.00949 µM): 63%
viability, T/C (second compound 0.1 µM, first compound 0.03 µM): 70.4%
viability, T/C (second compound 0.1 µM, first compound 0.0949 µM): 80.5%
viability, T/C (second compound 0.1 µM, first compound 0.3 µM): 15.7%
viability, T/C (second compound 0.1 µM, first compound 0.949 µM): 0.84%
viability, T/C (second compound 0.1 µM, first compound 3 µM): 0.9%
viability, T/C (second compound 0.316 µM, first compound 0.00949 µM): 60.1%
viability, T/C (second compound 0.316 µM, first compound 0.03 µM): 62%
viability, T/C (second compound 0.316 µM, first compound 0.0949 µM): 63.4%
viability, T/C (second compound 0.316 µM, first compound 0.3 µM): 17.3%
viability, T/C (second compound 0.316 µM, first compound 0.949 µM): 0.83%
viability, T/C (second compound 0.316 µM, first compound 3 µM): 1.1%
viability, T/C (second compound 1 µM, first compound 0.00949 µM): 44.7%
viability, T/C (second compound 1 µM, first compound 0.03 µM): 51.1%
viability, T/C (second compound 1 µM, first compound 0.0949 µM): 50.1%
viability, T/C (second compound 1 µM, first compound 0.3 µM): 12.7%
viability, T/C (second compound 1 µM, first compound 0.949 µM): 1.41%
viability, T/C (second compound 1 µM, first compound 3 µM): 1.15%

Cn1nccc1Nc1nccc(-c2ccn(C(CO)c3ccc(Cl)c(F)c3)c(=O)c2)n1 (stereo not given) + CCN1CCN(Cc2ccc(Nc3ncc(F)c(-c4cc(F)c5nc(C)n(C(C)C)c5c4)n3)nc2)CC1
IC50 (second compound 0.01 µM): 7.38 µM
IC50 (second compound 0.0316 µM): 6.8 µM
IC50 (second compound 0.1 µM): 9.03 µM
IC50 (second compound 0.316 µM): 4.25 µM
IC50 (second compound 1 µM): < 0.0316 µM
viability, T/C [1]: 84%
viability, T/C [2]: 98.2%
viability, T/C [3]: 105%
viability, T/C [4]: 118%
viability, T/C [5]: 91.6%
viability, T/C [6]: 35.1%
viability, T/C [7]: 71.3%
viability, T/C [8]: 80.8%
viability, T/C [9]: 84.4%
viability, T/C [10]: 102%
viability, T/C [11]: 74%
viability, T/C [12]: 38%
viability, T/C [13]: 56.2%
viability, T/C [14]: 55.9%
viability, T/C [15]: 63.2%
viability, T/C [16]: 69.6%
viability, T/C [17]: 60.3%
viability, T/C [18]: 34.3%
viability, T/C [19]: 52.1%
viability, T/C [20]: 55.9%
viability, T/C [21]: 61.1%
viability, T/C [22]: 58.8%
viability, T/C [23]: 54.4%
viability, T/C [24]: 36%
viability, T/C [25]: 40.8%
viability, T/C [26]: 48.9%
viability, T/C [27]: 52.2%
viability, T/C [28]: 60%
viability, T/C [29]: 57%
viability, T/C [30]: 40.2%
